In ChEMBL document CHEMBL1201862, “PubChem BioAssay data set” (2004):
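Grown in 96-well plates, cells were treated for 48 hours with each compound at five concentrations. Insufficient inhibition: endpoint recorded as highest concentration tested. GI50 is the concentration that inhibits growth by half.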 Calls of active or inactive are those of the source. No stated cut-off is given here; in the data, active = GI50 up to about 1.1 µM and inactive = higher.

Experiments:
Test in all cases: growth of human tumour cells (NCI), 48 h
[1] = tested on: BT-549
[2] = tested on: CAKI-1
[3] = tested on: CCRF-CEM
[4] = tested on: COLO 205
[5] = tested on: K562
[6] = tested on: MOLT-4
[7] = tested on: Malme-3M
[8] = tested on: OVCAR-3
[9] = tested on: OVCAR-4
[10] = tested on: OVCAR-5
[11] = tested on: PC-3
[12] = tested on: SF-295
[13] = tested on: SNB-19
[14] = tested on: SR
[15] = tested on: T47D
[16] = tested on: TK-10
[17] = tested on: UACC-257
[18] = tested on: Hs-578T
[19] = tested on: RPMI-8226

| Compound | GI50 [1] | GI50 [2] | GI50 [3] | GI50 [4] | GI50 [5] | GI50 [6] | GI50 [7] | GI50 [8] | GI50 [9] | GI50 [10] | GI50 [11] | GI50 [12] | GI50 [13] | GI50 [14] | GI50 [15] | GI50 [16] | GI50 [17] | GI50 [18] | GI50 [19] |
| --- | --- | --- | --- | --- | --- | --- | --- | --- | --- | --- | --- | --- | --- | --- | --- | --- | --- | --- | --- |
| Cc1c2c(Cl)c3c(c(Cl)c2c(C)c2c(Cl)c4c(c(Cl)c12)C(c1ccccc1)(c1ccccc1)C4(c1ccccc1)c1ccccc1)C(c1ccccc1)(c1ccccc1)C3(c1ccccc1)c1ccccc1 | > 100 µM (inactive) | > 100 µM (inactive) | > 100 µM (inactive) | > 100 µM (inactive) | > 100 µM (inactive) | > 100 µM (inactive) | > 100 µM (inactive) | > 100 µM (inactive) | > 100 µM (inactive) | > 100 µM (inactive) | > 100 µM (inactive) | > 100 µM (inactive) | > 100 µM (inactive) | > 100 µM (inactive) | > 100 µM (inactive) | > 100 µM (inactive) | > 100 µM (inactive) |  |  |
| CC(C)=Cc1cc(C)c2c(O)cc(C)c3c2c1C(C)=C(O)C3=O |  | 27 µM (inactive) | < 0.01 µM (active) | 13 µM (inactive) | 13 µM (inactive) | 25.8 µM (inactive) |  | 20.6 µM (inactive) |  | 28.7 µM (inactive) | 32.8 µM (inactive) | 22.2 µM (inactive) | 47.4 µM (inactive) | 35.3 µM (inactive) | 21.2 µM (inactive) |  | 36.6 µM (inactive) | 27 µM (inactive) | 0.0257 µM (active) |
| N#CC(C#N)=Cn1c(=S)[nH]c2ccc([N+](=O)[O-])cc21 |  | 71.4 µM (inactive) | > 100 µM (inactive) | > 100 µM (inactive) | > 100 µM (inactive) | > 100 µM (inactive) | > 100 µM (inactive) | > 100 µM (inactive) | > 100 µM (inactive) | > 100 µM (inactive) | > 100 µM (inactive) | > 100 µM (inactive) | > 100 µM (inactive) | > 100 µM (inactive) | > 100 µM (inactive) | > 100 µM (inactive) | > 100 µM (inactive) | 60.8 µM (inactive) | > 100 µM (inactive) |
| O=C1Nc2ccccc2N/C1=C\C(=O)C(F)F | > 100 µM (inactive) | > 100 µM (inactive) | > 100 µM (inactive) | > 100 µM (inactive) | > 100 µM (inactive) | > 100 µM (inactive) | > 100 µM (inactive) | > 100 µM (inactive) | > 100 µM (inactive) | > 100 µM (inactive) | > 100 µM (inactive) | > 100 µM (inactive) | > 100 µM (inactive) | > 100 µM (inactive) |  | > 100 µM (inactive) | > 100 µM (inactive) | > 100 µM (inactive) | > 100 µM (inactive) |
| N#Cc1c(-c2ccc([N+](=O)[O-])cc2)c(C#N)c(=O)n(NS(=O)(=O)c2ccccc2)c1-c1ccccc1 | > 100 µM (inactive) | > 100 µM (inactive) | > 100 µM (inactive) | > 100 µM (inactive) | > 100 µM (inactive) | > 100 µM (inactive) | > 100 µM (inactive) |  | > 100 µM (inactive) | > 100 µM (inactive) | > 100 µM (inactive) | > 100 µM (inactive) | > 100 µM (inactive) |  |  | > 100 µM (inactive) | > 100 µM (inactive) | > 100 µM (inactive) | > 100 µM (inactive) |
| CC(C)(C)c1ccc(/C=N/NC(=O)CSCC(=O)N/N=C/c2ccc(C(C)(C)C)cc2)cc1 |  |  |  | 1.17 µM (inactive) | 2.55 µM (inactive) | 2.12 µM (inactive) | 9.1 µM (inactive) |  | 3.88 µM (inactive) | 3.03 µM (inactive) | 2.8 µM (inactive) |  | 2.93 µM (inactive) | 1.7 µM (inactive) | 4.88 µM (inactive) | 5.21 µM (inactive) | 3.02 µM (inactive) | 3.17 µM (inactive) | 2.77 µM (inactive) |
| COc1ccc(/C=C/C(=O)c2cc(OC)cc(OC)c2)cc1 |  | 2.59 µM (inactive) | 2.07 µM (inactive) | 4.56 µM (inactive) | 2.59 µM (inactive) | 4.63 µM (inactive) | 13.6 µM (inactive) | 4.02 µM (inactive) | 3.45 µM (inactive) | 5.6 µM (inactive) | 6.12 µM (inactive) | 1.24 µM (inactive) | 1.69 µM (inactive) | 0.371 µM (active) | 3.11 µM (inactive) | 11.5 µM (inactive) | 13.6 µM (inactive) | 5.75 µM (inactive) | 0.646 µM (active) |
| NC(=S)Nc1c(S(N)(=O)=O)cc(S(N)(=O)=O)c(Cl)c1Cl | > 100 µM (inactive) | > 100 µM (inactive) | > 100 µM (inactive) | > 100 µM (inactive) | > 100 µM (inactive) | > 100 µM (inactive) | > 100 µM (inactive) | > 100 µM (inactive) | > 100 µM (inactive) | > 100 µM (inactive) | > 100 µM (inactive) | > 100 µM (inactive) | > 100 µM (inactive) |  |  | > 100 µM (inactive) | > 100 µM (inactive) | > 100 µM (inactive) | > 100 µM (inactive) |
| CNc1cc(N)ccc1C(=O)N1CCC[C@H]1CO |  |  |  |  | > 100 µM (inactive) | > 100 µM (inactive) |  | > 100 µM (inactive) |  | > 100 µM (inactive) | > 100 µM (inactive) | > 100 µM (inactive) | > 100 µM (inactive) | > 100 µM (inactive) | > 100 µM (inactive) | > 100 µM (inactive) | > 100 µM (inactive) | > 100 µM (inactive) | > 100 µM (inactive) |
| CN(C)CCNc1nc2c(c(=O)n(C)c(=O)n2C)n1C | > 100 µM (inactive) | > 100 µM (inactive) | > 100 µM (inactive) | > 100 µM (inactive) | > 100 µM (inactive) | > 100 µM (inactive) | > 100 µM (inactive) | > 100 µM (inactive) | > 100 µM (inactive) | > 100 µM (inactive) |  | > 100 µM (inactive) | > 100 µM (inactive) | > 100 µM (inactive) | > 100 µM (inactive) | > 100 µM (inactive) | > 100 µM (inactive) | > 100 µM (inactive) | > 100 µM (inactive) |
| COc1ccccc1Nc1nc2c([nH]1)c(=O)n(C)c(=O)n2C |  | > 10 µM (inactive) | > 10 µM (inactive) | > 10 µM (inactive) | > 10 µM (inactive) | > 10 µM (inactive) | > 10 µM (inactive) |  | > 10 µM (inactive) |  | > 10 µM (inactive) | > 10 µM (inactive) |  | > 10 µM (inactive) | > 10 µM (inactive) | > 10 µM (inactive) | > 10 µM (inactive) |  | > 10 µM (inactive) |
| O=C(NCC(=O)N1CCOC1=O)OCc1ccccc1 |  |  | > 100 µM (inactive) | > 100 µM (inactive) | > 100 µM (inactive) | > 100 µM (inactive) |  | > 100 µM (inactive) | > 100 µM (inactive) |  |  | > 100 µM (inactive) | > 100 µM (inactive) |  |  | > 100 µM (inactive) | > 100 µM (inactive) |  | > 100 µM (inactive) |
| O=C(O)C1CCCCC1c1c2ccc(=O)c(O)c-2oc2c(O)c(O)ccc12 (stereo not drawn) |  | 65.6 µM (inactive) | 0.18 µM (active) | > 100 µM (inactive) | 17.9 µM (inactive) | 22.8 µM (inactive) | 95.7 µM (inactive) | 42.1 µM (inactive) | 21.7 µM (inactive) | > 100 µM (inactive) | > 100 µM (inactive) | 23.7 µM (inactive) | 29.4 µM (inactive) | 27.5 µM (inactive) | 46.2 µM (inactive) | > 100 µM (inactive) | > 100 µM (inactive) | 4.44 µM (inactive) | 29.9 µM (inactive) |
| c1ccc2c(c1)Nc1cccc3c1c-2nc1cc2ccccc2cc13 | 12.4 µM (inactive) | 1.64 µM (inactive) |  | 1.63 µM (inactive) | 0.513 µM (active) |  | 1.69 µM (inactive) | 1.59 µM (inactive) | 1.87 µM (inactive) | 1.82 µM (inactive) | 1.53 µM (inactive) | 1.6 µM (inactive) | 1.75 µM (inactive) |  |  | 1.87 µM (inactive) | 1.58 µM (inactive) | 2.24 µM (inactive) |  |
| CCOC(=O)c1nc2cc(C(F)(F)F)ccc2nc1Nc1ccc(C(=O)NC(C(=O)OCC)C(=O)OCC)cc1 | 23.6 µM (inactive) | 19 µM (inactive) | 75 µM (inactive) | 44.4 µM (inactive) | 43.2 µM (inactive) | > 100 µM (inactive) | 20 µM (inactive) | 45.4 µM (inactive) | 10.6 µM (inactive) | 45.1 µM (inactive) | 22.9 µM (inactive) | 15.5 µM (inactive) | 18.2 µM (inactive) | 46.9 µM (inactive) |  | 24.7 µM (inactive) | 18.7 µM (inactive) | 12.4 µM (inactive) | 11.5 µM (inactive) |
| CN1CCN(C(=S)N(C)C(=O)c2ccco2)CC1 | > 100 µM (inactive) |  | > 100 µM (inactive) | > 100 µM (inactive) | > 100 µM (inactive) | > 100 µM (inactive) | > 100 µM (inactive) | > 100 µM (inactive) | > 100 µM (inactive) | > 100 µM (inactive) |  | > 100 µM (inactive) | > 100 µM (inactive) | > 100 µM (inactive) | > 100 µM (inactive) | > 100 µM (inactive) | > 100 µM (inactive) | > 100 µM (inactive) | > 100 µM (inactive) |
| C/C=C1/CN2CCC34c5ccccc5N(C)C23C2CC1C4(C(=O)OC)C(O)O2 (stereo not drawn) | > 100 µM (inactive) | > 100 µM (inactive) | > 100 µM (inactive) | > 100 µM (inactive) | > 100 µM (inactive) | > 100 µM (inactive) |  | > 100 µM (inactive) | > 100 µM (inactive) | > 100 µM (inactive) | > 100 µM (inactive) | > 100 µM (inactive) | > 100 µM (inactive) |  | > 100 µM (inactive) | > 100 µM (inactive) | > 100 µM (inactive) | > 100 µM (inactive) | > 100 µM (inactive) |
